# According to ChEMBL document CHEMBL1125637, “Benzocycloalkyl amines as novel C-termini for HIV protease inhibitors” (J Med Chem, 1991):
# Target: Human immunodeficiency virus type 1 protease (Human immunodeficiency virus 1, UniProt Q72874)
# Assay: Inhibition of HIV protease
# Format: functional
row,Compound,IC50
1,CC(C)(C)OC(=O)N[C@@H](Cc1ccccc1)[C@@H](O)C[C@@H](Cc1ccccc1)C(=O)NC1c2ccccc2C[C@H]1C(N)=O (some centres not stated),1.8 nM
2,CC(C)(C)OC(=O)N[C@@H](Cc1ccccc1)[C@@H](O)C[C@@H](Cc1ccccc1)C(=O)N[C@H]1c2ccccc2C[C@@H]1O (stereo in doubt; 8),259 nM
3,CC(C)(C)OC(=O)N[C@@H](Cc1ccccc1)[C@@H](O)C[C@@H](Cc1ccccc1)C(=O)N[C@@H]1CCc2ccccc21,19 nM
4,CC(C)(C)OC(=O)N[C@@H](Cc1ccccc1)[C@@H](O)C[C@@H](Cc1ccccc1)C(=O)NCCc1ccccc1,2800 nM
5,CC(C)(C)OC(=O)N[C@@H](Cc1ccccc1)[C@@H](O)C[C@@H](Cc1ccccc1)C(=O)NC1Cc2ccccc2C1,130 nM
6,CC(C)(C)OC(=O)N[C@@H](Cc1ccccc1)[C@@H](O)C[C@@H](Cc1ccccc1)C(=O)N[C@H]1CCc2ccccc21,21 nM
7,CC(C)(C)OC(=O)N[C@@H](Cc1ccccc1)[C@@H](O)C[C@@H](Cc1ccccc1)C(=O)N[C@H]1c2ccccc2C[C@H]1O,0.3 nM
8,CC(C)(C)OC(=O)N[C@@H](Cc1ccccc1)[C@@H](O)C[C@@H](Cc1ccccc1)C(=O)NC1c2ccccc2[C@@H](N)[C@H]1O (some centres not stated),1.9 nM
9,CC(C)(C)OC(=O)N[C@@H](Cc1ccccc1)[C@@H](O)C[C@@H](Cc1ccccc1)C(=O)NC1Cc2ccccc21 (some centres not stated),22 nM
10,CC(C)(C)OC(=O)N[C@@H](Cc1ccccc1)[C@@H](O)C[C@@H](Cc1ccccc1)C(=O)N[C@H]1c2ccccc2[C@@H](O)[C@H]1O,0.1 nM
11,CC(C)(C)OC(=O)N[C@@H](Cc1ccccc1)[C@@H](O)C[C@@H](Cc1ccccc1)C(=O)N[C@H]1c2ccccc2C[C@@H]1O (stereo in doubt; 10),229 nM
12,CC(C)(C)OC(=O)N[C@@H](Cc1ccccc1)[C@@H](O)C[C@@H](Cc1ccccc1)C(=O)NC1CCCc2ccccc21 (some centres not stated),16 nM
